One assay concerns Trichophyton rubrum. Nature of the assay: In vitro antifungal assay (zone of inhibition, MIC). Format: cell-based. On the procedure: (§1) The free ligands and their cyclometallated ruthenium(II) carbonyl complexes were screened for their in vitro antimicrobial activity against certain pathogenic bacterial and fungal species at three different concentrations using disc diffusion method.
(§2) Antimicrobial activities of [RuHClCO(PPh3)3], ligands H2L^1–4 and new organometallic Ru(II) complexes (1–4) were evaluated by agar well diffusion method[76] as reported, by taking Staphylococcus aureus, Streptococcus pneumonie, Pseudomonas aeruginosa, Salmonella paratyphi and fungus such as Candida albicans, Trichophyton rubrum, Aspergillus niger, Aspergillus fumigatus and Candida tropicalis. The above said all test organisms were obtained from the MTCC, Chandigarh, India and Microbiological laboratory, Coimbatore, Tamil Nadu, India. The antimicrobial activity of the test compounds was checked with various concentrations (25 μg ml^−1, 50 μg ml^−1 and 100 μg ml^−1) against all the test pathogens. Gentamicin and ketoconazole were used as positive controls to study the antibacterial and antifungal activities respectively. Each experiment was performed in triplicate and the results are represented as average zone of inhibition and minimum inhibitory concentration of all the test pathogens.

Another assay has as its system Aspergillus fumigatus. The assay is described as above. The format is cell-based. As to the method:
as §1, §2

The test system of another assay is Candida tropicalis. The description is as above. Format: cell-based. On the procedure: as §1, §2
The subject of the next assay is Aspergillus niger. The assay is described as above. Format: cell-based. As to the method:
as §1, §2

In assay [1] the test system is human normal keratinocyte cells (HaCaT). Nature of the assay: MTT cytotoxicity assay. Format: cell-based. The note with it: 48 h, read-out: IC50 values HaCaT. On the procedure:
In order to investigate the selectivity of the compounds for cancer cells rather than normal cell lines, the compounds were also screened for their anticancer activity on the human normal keratinocyte cells (HaCaT).
Cytotoxic activity of the compounds was tested with human lung cancer cell lines A549, human breast cancer cell lines MCF-7 and human normal keratinocyte cells (HaCaT) by using MTT assay, which was done according to the earlier literature methods[77] and IC50 values obtained from nonlinear regression using GraphPad Prism 5.[78] The LDH release[79] and NO release[80] assays of the compounds was evaluated by the earlier reported methods.
Background: Tetrazolium dyes change colour on reduction, which living cells bring about.

The subject of a further assay is S. aureus. Nature of the assay: In vitro antibacterial assay (zone of inhibition, MIC). The format is cell-based, Staphylococcus aureus. The note with it: for Minimum inhibitory concentration (MIC); head: IC50 VALUES / Zone of inhibition: S. aureus; for zone of inhibition at 50 µg/mL / zone of inhibition at 100 µg/mL: Staphylococcus aureus. On the procedure:
as §1, §2

The subject of the next assay is S. paratyphi. The assay is described as above. Format: cell-based, Salmonella paratyphi. The following applies: for zone of inhibition at 50 µg/mL / zone of inhibition at 100 µg/mL: Salmonella enterica.
Description: The free ligands and their cyclometallated ruthenium(II) carbonyl complexes were screened for their in vitro antimicrobial activity against certain pathogenic bacterial and fungal species at three different concentrations using disc diffusion method. […] Tested complexes had better antimicrobial activity than the ligands against all pathogens. This may be explained by Tweedy's chelation theory.[61] Coordination of ligands reduce the polarity of the metal ion essentially by partial sharing of its positive charge with the donor groups within the chelate ring system formed during the coordination and leading to the increase in lipophilic nature of the central metal atom, which favours the effective permeation through the lipid layer of microorganism.[61,62] […] When tested against T. rubrum, the activity of the complexes in the order of 3 > 2 > 1 > 4. In antibacterial studies, the complex 3 was effective against S. aureus followed by complex 2, 1 and 4 and in the case of S. pneumonie the activity of the complexes follows the order of 3 > 1 > 4 > 2. […] When tested against S. paratyphi complex 1 stood out as good followed by the complexes 4, 3 and 2 respectively.
as §2

Read-outs that look alike come from different tables or passages of the source.

For orientation: IC50 means the point on the concentration scale where inhibition reaches its midpoint. As for `COc1ccc2[c]3c(c(=O)oc2c1)C(C)=[N+]1N=C(N)[S][Ru-4]31([C]#[O+])([P+](c1ccccc1)(c1ccccc1)c1ccccc1)[P+](c1ccccc1)(c1ccccc1)c1ccccc1` [Complex 1, [Ru(7MAC-tsc)(CO)(PPh3)2]], the “Minimum inhibitory concentration (MIC); head: IC50 VALUES” (“Minimum inhibitory concentration (MIC)” for short) in the assay on Trichophyton rubrum is 15.29 ± 0.29 µM; in the assay with Aspergillus fumigatus, 15.56 ± 0.11 µM; in the assay on Candida tropicalis, 15.15 ± 0.11 µM; with Aspergillus niger, 15.89 ± 0.18 µM; in the assay on S. aureus, 16.35 ± 0.21 µM. In addition, the Zone of inhibition in the assay on Trichophyton rubrum (50 µg/ml) was found to be 11.57±0.22 mm; with Trichophyton rubrum (100 µg/ml), 17.56±0.13 mm; in the assay on Aspergillus fumigatus (50 µg/ml), 12.31±0.62 mm; in the assay on Aspergillus fumigatus (100 µg/ml), 19.64±0.65 mm; with Candida tropicalis (50 µg/ml), 12.82±0.34 mm; in the assay on Candida tropicalis (100 µg/ml) it was 18.51±0.54 mm. Further, the Zone of inhibition with Aspergillus niger (50 µg/ml) is on record as 11.74±0.26 mm; in the assay with Aspergillus niger (100 µg/ml) it was 17.52±0.41 mm; with S. aureus (50 µg/ml), 12.16±0.11 mm; in the assay with S. aureus (100 µg/ml), 18.09±0.15 mm; with S. paratyphi (50 µg/ml), 12.55±0.04 mm; with S. paratyphi (100 µg/ml), 18.95±0.31 mm. Besides, the IC50 in assay [1] (MTT, normal cells) was > 40 µM.
As to `CNC1=N[N+]2=C(C)c3[c](c4ccc(OC)cc4oc3=O)[Ru-4]2([C]#[O+])([P+](c2ccccc2)(c2ccccc2)c2ccccc2)([P+](c2ccccc2)(c2ccccc2)c2ccccc2)[S]1` [Complex 2, [Ru(7MAC-mtsc)(CO)(PPh3)2]], the “Minimum inhibitory concentration (MIC)” value was found to be 15.14 ± 0.24 µM with Trichophyton rubrum; 14.70 ± 0.1 µM in the assay with Aspergillus fumigatus; 13.46 ± 0.15 µM in the assay with Candida tropicalis; 14.67 ± 0.31 µM with Aspergillus niger; 15.90 ± 0.16 µM in the assay on S. aureus. Further, the Zone of inhibition in the assay with Trichophyton rubrum (50 µg/ml) is 12.16±0.15 mm; in the assay with Trichophyton rubrum (100 µg/ml), 17.45±0.35 mm; in the assay with Aspergillus fumigatus (50 µg/ml), 12.61±0.71 mm; in the assay with Aspergillus fumigatus (100 µg/ml) it was 17.36±0.45 mm; in the assay with Candida tropicalis (50 µg/ml) it was 12.64±0.15 mm; with Candida tropicalis (100 µg/ml) it was 19.52±0.27 mm. For the same molecule, the Zone of inhibition with Aspergillus niger (50 µg/ml) amounted to 11.56±0.24 mm; in the assay on Aspergillus niger (100 µg/ml), 19.63±0.12 mm; in the assay with S. aureus (50 µg/ml) it was 13.12±0.41 mm; in the assay with S. aureus (100 µg/ml) it was 18.65±0.13 mm; in the assay on S. paratyphi (50 µg/ml), 13.41±0.01 mm; in the assay with S. paratyphi (100 µg/ml) it was 18.45±0.51 mm. Moreover, in assay [1] (MTT, normal cells), the half-inhibitory concentration (IC50) was > 40 µM.
As to `CCNC1=N[N+]2=C(C)c3[c](c4ccc(OC)cc4oc3=O)[Ru-4]2([C]#[O+])([P+](c2ccccc2)(c2ccccc2)c2ccccc2)([P+](c2ccccc2)(c2ccccc2)c2ccccc2)[S]1` [Complex 3, [Ru(7MAC-etsc)(CO)(PPh3)2]], the “Minimum inhibitory concentration (MIC)” value with Trichophyton rubrum came out at 14.97 ± 0.31 µM; in the assay on Aspergillus fumigatus, 14.44 ± 0.27 µM; with Candida tropicalis it was 13.37 ± 0.16 µM; with Aspergillus niger, 14.44 ± 0.21 µM; with S. aureus it was 13.14 ± 0.12 µM. For the same molecule, the Zone of inhibition in the assay with Trichophyton rubrum (50 µg/ml) is on record as 13.25±0.52 mm; in the assay with Trichophyton rubrum (100 µg/ml), 17.44±0.61 mm; with Aspergillus fumigatus (50 µg/ml) it was 13.53±0.13 mm; in the assay with Aspergillus fumigatus (100 µg/ml), 18.31±0.21 mm; in the assay on Candida tropicalis (50 µg/ml) it was 13.55±0.34 mm; in the assay on Candida tropicalis (100 µg/ml), 17.91±0.31 mm. Besides, the Zone of inhibition in the assay with Aspergillus niger (50 µg/ml) was determined as 12.73±0.55 mm; in the assay with Aspergillus niger (100 µg/ml), 18.43±0.12 mm; in the assay with S. aureus (50 µg/ml) it was 12.04±0.60 mm; in the assay with S. aureus (100 µg/ml) it was 17.14±0.12 mm; in the assay with S. paratyphi (50 µg/ml) it was 12.53±0.14 mm; with S. paratyphi (100 µg/ml) it was 17.44±0.27 mm. Moreover, the IC50 in assay [1] (MTT, normal cells) is > 40 µM.
With `COc1ccc2[c]3c(c(=O)oc2c1)C(C)=[N+]1N=C(Nc2ccccc2)[S][Ru-4]31([C]#[O+])([P+](c1ccccc1)(c1ccccc1)c1ccccc1)[P+](c1ccccc1)(c1ccccc1)c1ccccc1` [Complex 4, [Ru(7MAC-ptsc)(CO)(PPh3)2]], the “Minimum inhibitory concentration (MIC)” value with Trichophyton rubrum was found to be 15.52 ± 0.27 µM; in the assay with Aspergillus fumigatus, 14.45 ± 0.13 µM; in the assay with Candida tropicalis, 13.54 ± 0.21 µM; in the assay on Aspergillus niger it was 14.80 ± 0.25 µM; with S. aureus, 18.25 ± 0.11 µM. Also, the Zone of inhibition in the assay with Trichophyton rubrum (50 µg/ml) is on record as 12.41±0.56 mm; in the assay with Trichophyton rubrum (100 µg/ml), 18.42±0.18 mm; with Aspergillus fumigatus (50 µg/ml), 12.36±0.52 mm; in the assay on Aspergillus fumigatus (100 µg/ml), 18.15±0.45 mm; in the assay with Candida tropicalis (50 µg/ml), 12.43±0.12 mm; in the assay on Candida tropicalis (100 µg/ml), 17.13±0.57 mm. Also, the Zone of inhibition with Aspergillus niger (50 µg/ml) is given as 11.55±0.26 mm; in the assay on Aspergillus niger (100 µg/ml), 17.66±0.13 mm; with S. aureus (50 µg/ml) it was 12.21±0.42 mm; with S. aureus (100 µg/ml), 18.11±0.11 mm; in the assay on S. paratyphi (50 µg/ml), 12.31±0.38 mm; in the assay on S. paratyphi (100 µg/ml), 17.55±0.54 mm. In assay [1] (MTT, normal cells), the half-maximal inhibitory concentration (IC50) is > 40 µM.
One may read the zone of inhibition as the extent of the growth-free halo in a diffusion test. Lower therefore signals little suppression of growth. Take `COc1ccc2cc(C(C)=NNC(N)=S)c(=O)oc2c1` [H2L^1, ((1E)-1-(1-(7-methoxy-2-oxo-2H-chromen-3-yl)ethylidene)thiosemicarbazone)]: the zone of inhibition at 50 µg/mL in the assay with Trichophyton rubrum was found to be 13.2 ± 0.16 mm; in the assay on Aspergillus fumigatus, 11.2 ± 0.73 mm; with Candida tropicalis, 11.93 ± 0.01 mm; in the assay with Aspergillus niger it was 13.1 ± 0.33 mm; in the assay on S. aureus it was 13 ± 0.23 mm; with S. paratyphi (50 µg/ml) it was 13.2 ± 0.77 mm. Moreover, the zone of inhibition at 100 µg/mL was determined as 17.3 ± 0.51 mm in the assay on Trichophyton rubrum; 17.4 ± 0.22 mm with Aspergillus fumigatus; 17.4 ± 0.51 mm in the assay on Candida tropicalis; 17.41 ± 0.14 mm in the assay on Aspergillus niger; 17.19 ± 0.16 mm in the assay on S. aureus; 16.5 ± 0.46 mm with S. paratyphi (100 µg/ml). Besides, the IC50 in assay [1] (Homo sapiens, HaCaT) was > 40 µM.
For `CNC(=S)NN=C(C)c1cc2ccc(OC)cc2oc1=O` [H2L^2, ((1E)-1-(1-(7-methoxy-2-oxo-2H-chromen-3-yl)ethylidene) 4(N)-methylthiosemicarbazone)], the zone of inhibition at 50 µg/mL is 11.3 ± 0.17 mm in the assay on Trichophyton rubrum; 11.8 ± 0.41 mm in the assay with Aspergillus fumigatus; 11.5 ± 0.75 mm in the assay with Candida tropicalis; 12.4 ± 0.33 mm in the assay on Aspergillus niger; 12.1 ± 0.25 mm with S. aureus; 13.43 ± 0.12 mm in the assay on S. paratyphi (50 µg/ml). The zone of inhibition at 100 µg/mL was determined as 17.4 ± 0.51 mm in the assay with Trichophyton rubrum; 18.3 ± 0.22 mm in the assay with Aspergillus fumigatus; 17.1 ± 0.46 mm in the assay on Candida tropicalis; 16.6 ± 0.21 mm in the assay with Aspergillus niger; 17.5 ± 0.28 mm in the assay with S. aureus; 16.2 ± 0.57 mm in the assay on S. paratyphi (100 µg/ml). Also, the IC50 in assay [1] (Homo sapiens, HaCaT) is > 40 µM.
For the molecule `CCNC(=S)NN=C(C)c1cc2ccc(OC)cc2oc1=O` [H2L^3, ((1E)-1-(1-(7-methoxy-2-oxo-2H-chromen-3-yl)ethylidene) 4(N)-ethylthiosemicarbazone)], the zone of inhibition at 50 µg/mL in the assay on Trichophyton rubrum was found to be 13.56 ± 0.05 mm; with Aspergillus fumigatus it was 12.2 ± 0.51 mm; in the assay on Candida tropicalis it was 12.3 ± 0.51 mm; in the assay with Aspergillus niger, 12.6 ± 0.31 mm; in the assay on S. aureus, 12.3 ± 0.41 mm; in the assay with S. paratyphi (50 µg/ml), 12.2 ± 0.25 mm. The zone of inhibition at 100 µg/mL with Trichophyton rubrum was 19.1 ± 0.21 mm; in the assay with Aspergillus fumigatus, 18.2 ± 0.24 mm; with Candida tropicalis, 17.2 ± 0.51 mm; in the assay on Aspergillus niger it was 17.62 ± 0.12 mm; in the assay with S. aureus, 15.6 ± 0.65 mm; in the assay on S. paratyphi (100 µg/ml), 17.1 ± 0.32 mm. In addition, in assay [1] (Homo sapiens, HaCaT), the IC50 is > 40 µM.
